# Measured values published in ChEMBL document CHEMBL1151094, “Benzenepropanoic acids containing chromanone or naphthalenone moieties are potent and orally active leukotriene B4 antagonists” (Bioorg Med Chem Lett, 1994).
# Target: T1, Leukotriene B4 receptor (Homo sapiens, UniProt Q9NPC1+Q15722)
# Assay: Inhibition of LTB4 -induced bronchoconstriction in guinea pigs following 0.1 mg/kg prior to challenge.
# Type: functional, organism-based
# Parameters: dose 0.1 mg/kg; scale not given: the % may be the effect or the level left
# Conditions: Cavia porcellus; target entry is the homologue from another species; at 0.1 mg/kg
# T1 sequence (Q15722 whole entry, looked up): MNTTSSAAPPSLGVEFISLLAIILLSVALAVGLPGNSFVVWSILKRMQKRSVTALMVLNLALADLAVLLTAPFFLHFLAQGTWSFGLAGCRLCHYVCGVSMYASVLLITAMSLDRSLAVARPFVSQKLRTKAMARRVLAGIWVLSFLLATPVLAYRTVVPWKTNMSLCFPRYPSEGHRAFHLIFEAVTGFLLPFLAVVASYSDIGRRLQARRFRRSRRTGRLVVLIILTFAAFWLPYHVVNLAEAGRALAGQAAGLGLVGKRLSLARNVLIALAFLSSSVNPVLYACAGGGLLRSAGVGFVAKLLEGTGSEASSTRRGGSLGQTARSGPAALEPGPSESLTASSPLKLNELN
# T1 sequence (Q9NPC1 whole entry, looked up): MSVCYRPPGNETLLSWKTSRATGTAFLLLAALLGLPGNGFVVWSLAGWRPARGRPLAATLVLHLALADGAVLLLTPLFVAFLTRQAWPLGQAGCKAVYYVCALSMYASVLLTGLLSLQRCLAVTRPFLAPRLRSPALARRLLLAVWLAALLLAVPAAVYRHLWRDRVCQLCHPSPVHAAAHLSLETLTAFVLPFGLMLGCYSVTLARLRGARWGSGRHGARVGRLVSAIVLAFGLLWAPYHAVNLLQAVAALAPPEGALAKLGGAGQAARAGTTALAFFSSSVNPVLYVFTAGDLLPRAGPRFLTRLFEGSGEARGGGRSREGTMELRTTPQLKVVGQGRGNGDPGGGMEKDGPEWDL
row,SMILES,Control
1,COc1ccc(/C=C/CCCCOc2ccc(C(=O)c3cccc(C(=O)O)c3)cc2CCC(=O)O)cc1,88%
2,CCCc1c(OCCCOc2ccc(C(C)=O)c(OC)c2CCC)ccc2c1OC(C(=O)O)CC2 (racemic),91%
3,COc1cc(C(=O)N(C(C)C)C(C)C)ccc1OCCCCCOc1ccc(C(=N)N)cc1.O=C(O)/C=C\C(=O)O [MOXILUBANT MALEATE],80%
4,COc1ccc(/C=C/CCCCOc2cccc(OCCCCC(=O)O)c2CCC(=O)O)cc1,101%

# System: Cavia porcellus
# Assay: Percent of control LTB4 -induced bronchoconstriction in guinea pigs before 20 hours pretreatment at 1.0 mg/kg
# Type: functional
# Conditions: not given
row,SMILES,Control
1,CCCc1c(OCCCCCCc2cccc(OCCCCCC(=O)O)c2CCC(=O)O)ccc2c1CCCC2=O,25%
2,CCCc1c(OCCCCCCc2cccc(OCCCC(=O)O)c2CCC(=O)O)ccc2c1OCCC2=O,20%
3,CCCc1c(OCCCCCCc2ccc(OCCCC(=O)O)cc2CCC(=O)O)ccc2c1OCCC2=O,45%
4,CCCc1c(OCCCCCCc2cccc(OCCCCCCCC(=O)O)c2CCC(=O)O)ccc2c1OCCC2=O,27%
5,CCCc1c(OCCCCCCc2cccc(OCCCCCCCCC(=O)O)c2CCC(=O)O)ccc2c1OCCC2=O,24%
6,CCCc1c(OCCCCCCc2cccc(OCCCCC(=O)O)c2CCC(=O)O)ccc2c1OCCC2=O,26%
7,CCCc1c(OCCCCCCc2cccc(OCCCCCCC(=O)O)c2CCC(=O)O)ccc2c1OCCC2=O,73%
8,CCCc1c(OCCCCCCc2cccc(OCCCC(=O)O)c2CCC(=O)O)ccc2c1CCCC2=O,19%
9,CCCc1c(OCCCOc2ccc(-c3cscn3)c(OC)c2CC2CC2)ccc2c1OC(C(=O)O)CC2 (configuration not stated),36%
10,CC(C)(CCCCOc1cc(-c2ccccc2)cc(-c2ccccc2)n1)c1nnn[nH]1,15%

# Target: T1, Leukotriene B4 receptor
# Assay: Inhibition of leukotriene B4 (LTB4) binding to its receptor on intact human neutrophils
# Conditions: not given
row,SMILES,Ki
1,COc1ccc(/C=C/CCCCOc2ccc(C(=O)c3cccc(C(=O)O)c3)cc2CCC(=O)O)cc1,11 nM
2,CCCc1c(OCCCCCOc2cc3c(cc2C(C)=O)CCC(C(=O)O)O3)ccc(C(C)=O)c1O (racemic) [ABLUKAST],320 nM
3,COc1cc(C(=O)N(C(C)C)C(C)C)ccc1OCCCCCOc1ccc(C(=N)N)cc1.O=C(O)/C=C\C(=O)O [MOXILUBANT MALEATE],1 nM
